Data taken from ChEMBL document CHEMBL4507295 (2021).

Assays:
[1] = target: Tyrosine-protein kinase TXK (Homo sapiens) (UniProt P42681); details: Compound concentration 1000.0 nM
[2] = target: Proto-oncogene tyrosine-protein kinase ROS (Homo sapiens) (UniProt P08922); details: Compound concentration 1000.0 nM
[3] = target: Ephrin type-B receptor 4 (Homo sapiens) (UniProt P54760); details: Compound concentration 1000.0 nM
[4] = target: Epidermal growth factor receptor (Homo sapiens) (UniProt P00533); details: Compound concentration 1000.0 nM
[5] = target: Inhibitor of nuclear factor kappa-B kinase subunit epsilon (Homo sapiens) (UniProt Q14164); details: Compound concentration 1000.0 nM
[6] = target: Ephrin type-B receptor 1 (Homo sapiens) (UniProt P54762); details: Compound concentration 1000.0 nM
[7] = target: Alpha-1B adrenergic receptor (Homo sapiens) (UniProt P35368); details: Compound concentration 10.0 uM
[8] = target: Serine/threonine-protein kinase Sgk3 (Homo sapiens) (UniProt Q96BR1); details: Compound concentration 1000.0 nM
[9] = target: Cyclin-dependent kinase 13 (Homo sapiens) (UniProt Q14004); details: Compound concentration 1000.0 nM
[10] = target: Serine/threonine-protein kinase tousled-like 2 (Homo sapiens) (UniProt Q86UE8); details: Compound concentration 1000.0 nM
[11] = target: Mitogen-activated protein kinase kinase kinase 14 (Homo sapiens) (UniProt Q99558); details: Compound concentration 1000.0 nM
[12] = target: Serine/threonine-protein kinase ULK3 (Homo sapiens) (UniProt Q6PHR2); details: Compound concentration 1000.0 nM
[13] = target: Serine/threonine-protein kinase BRSK2 (Homo sapiens) (UniProt Q8IWQ3); details: Compound concentration 1000.0 nM
[14] = target: Interleukin-1 receptor-associated kinase 3 (Homo sapiens) (UniProt Q9Y616); details: Compound concentration 1000.0 nM
[15] = tested on: Hepatocyte growth factor receptor (Homo sapiens), P08581 [Y1235D]; details: Compound concentration 1000.0 nM
[16] = target: Serine/threonine-protein kinase NLK (Homo sapiens) (UniProt Q9UBE8); details: Compound concentration 1000.0 nM
[17] = target: Ribosomal protein S6 kinase alpha-6 (Homo sapiens) (UniProt Q9UK32); details: Compound concentration 1000.0 nM
[18] = target: G protein-coupled receptor kinase 3 (Homo sapiens) (UniProt P35626); details: Compound concentration 1000.0 nM
[19] = target: RAC-alpha serine/threonine-protein kinase (Homo sapiens) (UniProt P31749); details: Compound concentration 1000.0 nM
[20] = target: Cyclin-dependent kinase 11B (Homo sapiens) (UniProt P21127); details: Compound concentration 1000.0 nM
[21] = tested on: Epidermal growth factor receptor (Homo sapiens), P00533 [G719C]; details: Compound concentration 1000.0 nM
[22] = target: Receptor-interacting serine/threonine-protein kinase 2 (Homo sapiens) (UniProt O43353); details: Compound concentration 1000.0 nM
[23] = tested on: ALK tyrosine kinase receptor (Homo sapiens), Q9UM73 [C1156Y]; details: Compound concentration 1000.0 nM
[24] = target: Serine/threonine-protein kinase Nek6 (Homo sapiens) (UniProt Q9HC98); details: Compound concentration 1000.0 nM
[25] = tested on: Receptor-type tyrosine-protein kinase FLT3 (Homo sapiens), P36888 [D835H]; details: Compound concentration 1000.0 nM
[26] = target: Serine/threonine-protein kinase mTOR (Homo sapiens) (UniProt P42345); details: Compound concentration 1000.0 nM
[27] = target: Serine/threonine-protein kinase MARK2 (Homo sapiens) (UniProt Q7KZI7); details: Compound concentration 1000.0 nM
[28] = target: Ephrin type-B receptor 3 (Homo sapiens) (UniProt P54753); details: Compound concentration 1000.0 nM
[29] = target: RAF proto-oncogene serine/threonine-protein kinase (Homo sapiens) (UniProt P04049); details: Compound concentration 1000.0 nM
[30] = target: Serine/threonine-protein kinase 25 (Homo sapiens) (UniProt O00506); details: Compound concentration 1000.0 nM
[31] = tested on: Proto-oncogene tyrosine-protein kinase receptor Ret (Homo sapiens), P07949 [M918T]; details: Compound concentration 1000.0 nM
[32] = target: Beta-adrenergic receptor kinase 1 (Homo sapiens) (UniProt P25098); details: Compound concentration 1000.0 nM
[33] = target: Serine/threonine-protein kinase MAK (Homo sapiens) (UniProt P20794); details: Compound concentration 1000.0 nM
[34] = target: Cyclin-dependent kinase 4 (Homo sapiens) (UniProt P11802); details: Compound concentration 1000.0 nM
[35] = target: Serine/threonine-protein kinase RIO3 (Homo sapiens) (UniProt O14730); details: Compound concentration 1000.0 nM
[36] = target: Mitogen-activated protein kinase kinase kinase 15 (Homo sapiens) (UniProt Q6ZN16); details: Compound concentration 1000.0 nM
[37] = target: Histamine H1 receptor (Homo sapiens) (UniProt P35367); details: Compound concentration 10.0 uM
[38] = target: Ribosomal protein S6 kinase alpha-2 (Homo sapiens) (UniProt Q15349); details: Compound concentration 1000.0 nM
[39] = target: Receptor-interacting serine/threonine-protein kinase 1 (Homo sapiens) (UniProt Q13546); details: Compound concentration 1000.0 nM
[40] = target: Serine/threonine-protein kinase WNK4 (Homo sapiens) (UniProt Q96J92); details: Compound concentration 1000.0 nM
[41] = target: MAP kinase-interacting serine/threonine-protein kinase 2 (Homo sapiens) (UniProt Q9HBH9); details: Compound concentration 1000.0 nM
[42] = target: Sodium-dependent dopamine transporter (Homo sapiens) (UniProt Q01959); details: Compound concentration 10.0 uM
[43] = target: Tyrosine-protein kinase Yes (Homo sapiens) (UniProt P07947); details: Compound concentration 1000.0 nM
[44] = target: Serine/threonine-protein kinase B-raf (Homo sapiens) (UniProt P15056); details: Compound concentration 1000.0 nM
[45] = target: Calcium/calmodulin-dependent protein kinase type II subunit beta (Homo sapiens) (UniProt Q13554); details: Compound concentration 1000.0 nM

Sequence of Mitogen-activated protein kinase kinase kinase 14 (Homo sapiens) (Q99558 whole entry, looked up): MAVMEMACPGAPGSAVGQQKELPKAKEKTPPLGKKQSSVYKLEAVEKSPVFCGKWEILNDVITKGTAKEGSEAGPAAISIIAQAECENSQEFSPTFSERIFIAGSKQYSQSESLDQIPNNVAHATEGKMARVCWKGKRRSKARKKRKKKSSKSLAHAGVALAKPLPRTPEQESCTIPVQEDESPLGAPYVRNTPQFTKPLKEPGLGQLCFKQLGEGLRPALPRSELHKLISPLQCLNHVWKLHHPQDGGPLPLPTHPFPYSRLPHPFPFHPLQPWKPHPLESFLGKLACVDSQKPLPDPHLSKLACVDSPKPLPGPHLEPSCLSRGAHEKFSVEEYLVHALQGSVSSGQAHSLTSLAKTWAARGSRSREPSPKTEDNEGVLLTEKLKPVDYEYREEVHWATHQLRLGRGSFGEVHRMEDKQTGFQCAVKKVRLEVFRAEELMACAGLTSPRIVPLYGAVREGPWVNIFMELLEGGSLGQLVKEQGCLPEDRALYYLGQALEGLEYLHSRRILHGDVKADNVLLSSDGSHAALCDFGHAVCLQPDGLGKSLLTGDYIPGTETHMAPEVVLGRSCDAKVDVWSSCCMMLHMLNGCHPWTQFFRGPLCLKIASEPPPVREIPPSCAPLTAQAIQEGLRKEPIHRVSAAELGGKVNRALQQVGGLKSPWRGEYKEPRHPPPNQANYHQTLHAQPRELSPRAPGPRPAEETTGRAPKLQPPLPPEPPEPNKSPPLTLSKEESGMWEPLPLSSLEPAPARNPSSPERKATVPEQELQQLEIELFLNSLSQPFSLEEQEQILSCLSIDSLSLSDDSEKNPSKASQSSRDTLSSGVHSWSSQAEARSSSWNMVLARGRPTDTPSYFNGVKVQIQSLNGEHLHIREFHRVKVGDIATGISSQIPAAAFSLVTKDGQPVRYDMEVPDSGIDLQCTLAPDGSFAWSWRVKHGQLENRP
Sequence of Cyclin-dependent kinase 11B (Homo sapiens) (P21127 whole entry): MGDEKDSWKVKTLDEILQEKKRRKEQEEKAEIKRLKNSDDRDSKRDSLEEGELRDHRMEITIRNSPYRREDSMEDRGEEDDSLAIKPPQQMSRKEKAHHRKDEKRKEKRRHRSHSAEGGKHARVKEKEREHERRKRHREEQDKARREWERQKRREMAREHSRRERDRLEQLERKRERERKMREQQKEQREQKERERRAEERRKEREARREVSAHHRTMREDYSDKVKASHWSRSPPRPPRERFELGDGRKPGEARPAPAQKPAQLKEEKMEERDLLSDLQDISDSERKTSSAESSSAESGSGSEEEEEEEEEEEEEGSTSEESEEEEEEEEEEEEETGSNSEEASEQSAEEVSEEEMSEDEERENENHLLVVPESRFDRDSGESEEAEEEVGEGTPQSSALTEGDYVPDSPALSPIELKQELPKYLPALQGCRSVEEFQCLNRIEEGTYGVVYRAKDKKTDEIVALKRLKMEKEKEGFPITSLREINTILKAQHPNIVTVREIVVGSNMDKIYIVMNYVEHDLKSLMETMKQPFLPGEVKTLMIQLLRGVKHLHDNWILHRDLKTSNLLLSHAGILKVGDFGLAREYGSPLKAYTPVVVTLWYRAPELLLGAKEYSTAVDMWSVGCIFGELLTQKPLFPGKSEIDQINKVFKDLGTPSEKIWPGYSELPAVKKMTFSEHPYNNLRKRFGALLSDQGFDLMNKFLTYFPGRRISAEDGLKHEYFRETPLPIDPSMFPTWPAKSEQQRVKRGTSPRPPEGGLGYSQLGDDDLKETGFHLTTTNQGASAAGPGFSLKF
Sequence of Serine/threonine-protein kinase NLK (Homo sapiens) (Q9UBE8 whole entry): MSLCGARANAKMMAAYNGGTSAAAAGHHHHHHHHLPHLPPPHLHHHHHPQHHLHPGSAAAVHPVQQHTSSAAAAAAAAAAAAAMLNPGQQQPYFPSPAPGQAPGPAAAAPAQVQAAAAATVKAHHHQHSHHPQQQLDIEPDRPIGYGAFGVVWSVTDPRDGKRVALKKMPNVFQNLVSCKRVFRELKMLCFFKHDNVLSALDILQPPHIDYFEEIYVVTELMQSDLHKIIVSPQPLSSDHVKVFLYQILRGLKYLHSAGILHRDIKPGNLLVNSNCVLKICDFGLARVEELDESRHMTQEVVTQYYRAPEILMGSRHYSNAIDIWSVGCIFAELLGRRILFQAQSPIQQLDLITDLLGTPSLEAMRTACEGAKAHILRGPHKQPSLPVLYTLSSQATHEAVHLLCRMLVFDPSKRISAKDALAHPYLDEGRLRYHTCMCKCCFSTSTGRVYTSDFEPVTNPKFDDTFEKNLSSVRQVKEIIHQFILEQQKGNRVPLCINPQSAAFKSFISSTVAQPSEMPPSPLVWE
Sequence of Ephrin type-B receptor 4 (Homo sapiens) (P54760 whole entry): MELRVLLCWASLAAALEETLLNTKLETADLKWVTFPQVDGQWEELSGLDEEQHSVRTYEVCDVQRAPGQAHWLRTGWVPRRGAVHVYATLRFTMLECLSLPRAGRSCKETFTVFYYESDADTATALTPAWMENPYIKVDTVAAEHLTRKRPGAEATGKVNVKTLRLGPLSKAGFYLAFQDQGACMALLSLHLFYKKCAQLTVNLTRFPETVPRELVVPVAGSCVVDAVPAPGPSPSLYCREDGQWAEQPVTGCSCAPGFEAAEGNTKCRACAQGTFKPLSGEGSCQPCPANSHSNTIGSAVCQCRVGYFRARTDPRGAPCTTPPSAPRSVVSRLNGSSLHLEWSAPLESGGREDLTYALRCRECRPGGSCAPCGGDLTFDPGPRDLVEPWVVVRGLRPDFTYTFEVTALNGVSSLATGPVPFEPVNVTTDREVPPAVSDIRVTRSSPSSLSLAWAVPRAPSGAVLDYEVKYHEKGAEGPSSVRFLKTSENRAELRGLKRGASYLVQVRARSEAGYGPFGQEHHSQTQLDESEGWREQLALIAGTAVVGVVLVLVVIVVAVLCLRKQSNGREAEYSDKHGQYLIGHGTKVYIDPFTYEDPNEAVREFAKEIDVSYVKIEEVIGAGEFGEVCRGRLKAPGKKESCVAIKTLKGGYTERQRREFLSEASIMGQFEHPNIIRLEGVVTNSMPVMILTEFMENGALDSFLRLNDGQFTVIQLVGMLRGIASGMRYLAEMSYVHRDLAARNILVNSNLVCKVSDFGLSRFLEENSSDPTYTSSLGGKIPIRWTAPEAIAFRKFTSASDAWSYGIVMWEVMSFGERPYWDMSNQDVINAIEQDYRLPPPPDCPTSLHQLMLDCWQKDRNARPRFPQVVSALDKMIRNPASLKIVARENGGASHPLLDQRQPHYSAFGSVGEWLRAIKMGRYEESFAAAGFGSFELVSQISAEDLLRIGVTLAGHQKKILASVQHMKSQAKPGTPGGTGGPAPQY
Sequence of Ribosomal protein S6 kinase alpha-6 (Homo sapiens) (Q9UK32 whole entry): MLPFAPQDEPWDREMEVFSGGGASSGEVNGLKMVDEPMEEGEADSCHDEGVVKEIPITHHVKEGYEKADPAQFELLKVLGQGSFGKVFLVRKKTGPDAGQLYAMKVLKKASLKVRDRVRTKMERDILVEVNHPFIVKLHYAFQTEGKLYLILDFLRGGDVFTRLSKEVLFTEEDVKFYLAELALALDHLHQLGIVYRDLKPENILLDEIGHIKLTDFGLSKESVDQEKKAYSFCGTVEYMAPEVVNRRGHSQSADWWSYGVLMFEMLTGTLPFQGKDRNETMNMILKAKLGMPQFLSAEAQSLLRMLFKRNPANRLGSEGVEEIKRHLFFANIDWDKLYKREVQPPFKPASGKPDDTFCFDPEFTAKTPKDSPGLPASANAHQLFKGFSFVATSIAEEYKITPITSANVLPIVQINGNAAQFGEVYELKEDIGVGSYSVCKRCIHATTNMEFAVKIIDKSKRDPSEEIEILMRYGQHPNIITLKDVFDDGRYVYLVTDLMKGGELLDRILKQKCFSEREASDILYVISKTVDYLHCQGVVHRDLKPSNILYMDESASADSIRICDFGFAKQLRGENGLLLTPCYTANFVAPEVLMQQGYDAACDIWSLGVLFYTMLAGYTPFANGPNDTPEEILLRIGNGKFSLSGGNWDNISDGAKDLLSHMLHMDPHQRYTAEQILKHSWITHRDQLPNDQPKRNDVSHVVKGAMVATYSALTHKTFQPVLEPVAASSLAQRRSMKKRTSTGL
Sequence of Tyrosine-protein kinase TXK (Homo sapiens) (P42681 whole entry): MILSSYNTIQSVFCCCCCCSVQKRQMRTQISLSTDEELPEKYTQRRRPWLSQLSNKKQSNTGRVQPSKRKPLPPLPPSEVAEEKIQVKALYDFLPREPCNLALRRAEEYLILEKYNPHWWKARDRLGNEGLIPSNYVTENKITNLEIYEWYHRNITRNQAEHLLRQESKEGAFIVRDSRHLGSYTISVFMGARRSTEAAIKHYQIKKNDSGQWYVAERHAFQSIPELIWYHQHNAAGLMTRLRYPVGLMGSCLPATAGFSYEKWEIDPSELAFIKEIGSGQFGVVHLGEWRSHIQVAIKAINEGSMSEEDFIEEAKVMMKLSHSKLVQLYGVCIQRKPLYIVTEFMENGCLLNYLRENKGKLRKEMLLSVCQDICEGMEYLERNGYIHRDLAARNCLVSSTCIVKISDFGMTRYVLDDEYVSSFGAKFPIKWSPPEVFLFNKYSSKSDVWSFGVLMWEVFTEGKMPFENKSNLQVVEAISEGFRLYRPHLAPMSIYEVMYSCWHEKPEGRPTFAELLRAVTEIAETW
Sequence of MAP kinase-interacting serine/threonine-protein kinase 2 (Homo sapiens) (Q9HBH9 whole entry, looked up): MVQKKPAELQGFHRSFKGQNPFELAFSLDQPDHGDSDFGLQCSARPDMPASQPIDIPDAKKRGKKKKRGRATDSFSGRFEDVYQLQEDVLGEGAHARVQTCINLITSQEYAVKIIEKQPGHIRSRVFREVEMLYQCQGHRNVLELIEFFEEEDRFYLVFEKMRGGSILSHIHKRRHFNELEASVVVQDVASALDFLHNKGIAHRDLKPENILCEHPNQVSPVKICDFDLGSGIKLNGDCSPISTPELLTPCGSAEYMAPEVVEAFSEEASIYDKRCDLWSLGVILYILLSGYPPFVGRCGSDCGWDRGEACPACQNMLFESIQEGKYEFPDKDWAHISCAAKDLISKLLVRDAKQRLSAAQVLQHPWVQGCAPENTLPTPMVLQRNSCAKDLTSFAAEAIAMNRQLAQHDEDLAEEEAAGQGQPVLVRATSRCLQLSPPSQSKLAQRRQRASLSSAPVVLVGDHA

N#CC1(c2ccccn2)CCN(Cc2cc(C(=O)O)c(=O)n3ccccc23)CC1 [MSD-M1PAM]
inactive: residual activity [1] 100% | residual activity [2] 90% | residual activity [3] 83% | residual activity [4] 83% | residual activity [5] 88% | residual activity [6] 100% | inhibition [7] 6.68% | residual activity [8] 74% | residual activity [9] 98% | residual activity [10] 98% | residual activity [11] 73% | residual activity [12] 89% | residual activity [13] 100% | residual activity [14] 100% | residual activity [15] 99% | residual activity [16] 100% | residual activity [17] 84% | residual activity [18] 95% | residual activity [19] 100% | residual activity [20] 100% | residual activity [21] 100% | residual activity [22] 92% | residual activity [23] 100% | residual activity [24] 100% | residual activity [25] 100% | residual activity [26] 90% | residual activity [27] 100% | residual activity [28] 92% | residual activity [29] 100% | residual activity [30] 100% | residual activity [31] 100% | residual activity [32] 93% | residual activity [33] 97% | residual activity [34] 82% | residual activity [35] 96% | residual activity [36] 100% | inhibition [37] 28.4% | residual activity [38] 100% | residual activity [39] 100% | residual activity [40] 75% | residual activity [41] 85% | inhibition [42] -7.27% | residual activity [43] 94% | residual activity [44] 93% | residual activity [45] 100%

N#CC1(c2ccccn2)CCN(Cc2cc(C(=O)N3CCCC3)c(=O)n3ccccc23)CC1
inactive: residual activity [1] 91% | residual activity [2] 97% | residual activity [3] 100% | residual activity [4] 100% | residual activity [5] 94% | residual activity [6] 91% | inhibition [7] 1.36% | residual activity [8] 82% | residual activity [9] 100% | residual activity [10] 100% | residual activity [11] 100% | residual activity [12] 96% | residual activity [13] 77% | residual activity [14] 100% | residual activity [15] 97% | residual activity [16] 92% | residual activity [17] 89% | residual activity [18] 77% | residual activity [19] 91% | residual activity [20] 80% | residual activity [21] 80% | residual activity [22] 83% | residual activity [23] 100% | residual activity [24] 100% | residual activity [25] 87% | residual activity [26] 58% | residual activity [27] 100% | residual activity [28] 90% | residual activity [29] 100% | residual activity [30] 97% | residual activity [31] 88% | residual activity [32] 82% | residual activity [33] 93% | residual activity [34] 98% | residual activity [35] 90% | residual activity [36] 100% | inhibition [37] 9.7% | residual activity [38] 86% | residual activity [39] 100% | residual activity [40] 81% | residual activity [41] 96% | inhibition [42] 18.6% | residual activity [43] 84% | residual activity [44] 100% | residual activity [45] 89%
